From patent US8685695B2, “Method for producing a mixture of bacteriophages and the use thereof in the therapy of antibiotic-resistant staphylococci” (priority 2008, dated 2014)
Read-outs that look alike come from different tables or passages of the source.

What was measured:
[1] = test system: S. aureus M.06.02.0071 (USA300, MRSA, ST8); format: in vivo, mouse; conditions: for Percentage of surviving animals: antibiotics 2 × day
Procedure: A non-sensitive antibiotic (ciprofloxacin) and a sensitive antibiotic (vancomycin) were also used to allow a comparison to be made.
Four groups, each of 20 mice weighing approximately 25 g, were first subjected to immunosuppression to ensure that they would be adequately infected by S. aureus. The immunosuppression began with an application of cyclophosphamide 4 days before the bacterial infection. A further application of cyclophosphamide was carried out 1 day before, together with a once-only administration of cortisone. The immunosuppression with cyclophosphamide was repeated at intervals of 3 days.
The strain of S. aureus which was selected for the infection was resistant to this antibiotic.
The strain of S. aureus which was selected for the infection (internal designation M.06.02.0071) was an isolate which was supplied by the Robert-Koch-Institut of Wernigerode. This S. aureus is a member of the group of USA300 (MRSA, ST8) strains which are considered particularly virulent due to the presence of the virulence factor PVL.
On day 0, the mice had 1.5×10^7 CFU of the S. aureus applied to them intratrachially under anaesthetic.
The medicament, which was applied intratrachially under anaesthetic, was a one-off dose of 5.5×10^10 PFU of a 1:1 mixture of the bacteriophages DSM 18722 and DSM 18723 either one hour before the infection or one hour after the infection. One group, beginning 1 day before the infection, was also treated subcutaneously with vancomycin twice a day.
The main parameter was the determination of lethality as a function of the time elapsed since the start of the test. The length of the test was 14 days.

S. aureus M.06.02.0071 [2] = test: Sensitivity of the strain to bacteriophages and antibiotics; format: cell-based, Staphylococcus aureus
S. aureus DSM 18421 [3] = test: Nanocalorimetric measurement of metabolism; format: cell-based, Staphylococcus aureus; conditions: antibiotics 10 μg/ml; bacteriophages 4×10^9 PFU/ml
Procedure: (§1) Another sensitive method of examining the activity of micro-organisms is available in the form of nanocalorimetry. In this technique, metabolic action is measured by way of the heat it produces. The production of heat is measured from the voltage (in [p\/]) generated at thermocouples.
(§2) A detailed description of the measuring system used and the procedure can be found in: J. Lerchner et al., Thermochimica Acta 477, 2008, 48-53.
(§3) The concentration of the bacteriophages was 4×10^9 PFU/ml.

S. aureus M.06.02.0071 [4] = test: Nanocalorimetric measurement of metabolism; format: cell-based, Staphylococcus aureus; conditions: antibiotics 10 μg/ml; bacteriophages 4×10^9 PFU/ml
Procedure: as §1, §2, §3

[5] = test system: S. aureus from tissue (M.06.02.0071, mouse pneumonia model); test: Nanocalorimetric measurement of metabolism, bacteria isolated from lung tissue; format: cell-based, Staphylococcus aureus; conditions: antibiotics 10 μg/ml, bacteriophages 4×10^9 PFU/ml
Procedure: as §1, §2, §3

S. aureus DSM 18421 [6] = test: Sensitivity of the strain to bacteriophages and antibiotics; format: cell-based, Staphylococcus aureus
[7] = test system: Staphylococcus aureus DSM 18421; test: Lysis of Staphylococcus aureus DSM 18421 in saliva (viable cell count); format: cell-based
Procedure: • Morning saliva (before breakfast and before cleaning of teeth) was collected from different individual persons. • The saliva samples were centrifuged for 5 min at room temperature at 12,000 rpm. • The supernatant liquid was removed and sterile filtered (0.8 μm pre-filter, then a 0.22 μm filter). • The samples of saliva were mixed 1:1 in a sterile vessel. 7.2 Incubation of the Preparations for Lysis • To the saliva prepared as described above were also added: • approx. 1×10^4 CFU/ml of DSM 18421 (from a suitable dilution of the overnight culture), • approx. 1×10^8 PFU/ml of phages (Simba Top, 1:1 mixture of purified M and K phages). • Used in addition were serralysin (100 U/ml), dornase (25 μml) or benzonase (25 μml) or a combination of these enzymes. • The enzymes were added right at the start of the incubation. • A control incubation was carried out at the same time in which the phages were replaced by adding the same volume of storage buffers (for composition see below). • The total volume of all the preparations was 2 ml. • The incubation was carried out in 10 ml glass penicillin bottles at 37° C. and 200 rpm (in a shaker incubator) 7.3 Determination of the Viable Cell Count (CFU/ml) After 6 h • After an incubation period of 6 h, an aliquot was taken from each preparation and a factor-of-ten dilution series prepared from it. • 2-5 suitable dilutions were selected from each dilution series and 2×100 μl (twin samples) of each were plated (with a Drigalski spatula). • The plating was performed onto LB agar in the case of the phage-free preparations and onto LB agar containing 0.01% citrate in the case of the preparations containing phages. • After at least 16 h of incubation at 37° C., the colony forming units (CFU's) were counted on each plate • Only plates which had at least 20 CFU's were used to calculate the FIGURE for CFU/ml • A representation in graph form was prepared by plotting CFU/ml (in logarithmic form) against the period of incubation.
Period of incubation: 6 hours Medium: saliva (human; mixture)

[8] = Table 10, 6 h, 37° C., phages approx. 1×10^8 PFU/ml, serralysin 100 U/ml

| Molecule | Percentage of surviving animals ([1]; 0 hours after infection) | Percentage of surviving animals ([1]; 5 hours after infection) | Percentage of surviving animals ([1]; 19 hours after infection) | Percentage of surviving animals ([1]; 23 hours after infection) | Percentage of surviving animals ([1]; 29 hours after infection) | Percentage of surviving animals ([1]; 43 hours after infection) | Percentage of surviving animals ([1]; 47 hours after infection) | Sensitivity of the strain, in words (S. aureus M.06.02.0071 [2]) | Mortality in the acute phase, in words ([1]; bacteriophages one-off before the infection, vancomycin prior and thereafter continuous, compared with the placebo) | % relative to control (S. aureus DSM 18421 [3]) | Difference voltage (S. aureus DSM 18421 [3]) | % relative to control (S. aureus M.06.02.0071 [4]) | Difference voltage (S. aureus M.06.02.0071 [4]) | % relative to control [5] | Difference voltage [5] | Sensitivity of the strain, in words (S. aureus DSM 18421 [6]) | Effect on the colony count of S. aureus in saliva, in words ([7]; 6 h) | Colony count, % of control without phages [7, 8] | Viable cell count [7, 8] |
| --- | --- | --- | --- | --- | --- | --- | --- | --- | --- | --- | --- | --- | --- | --- | --- | --- | --- | --- | --- |
| O=C(O)c1cn(C2CC2)c2cc(N3CCNCC3)c(F)cc2c1=O [Ciprofloxacin, ciprofloxacin] | 100% | 100% | 60% | 45% | 35% | 10% | 10% | resistant | – | – | – | – | – | – | – | – | – | – | – |
| CN[C@H](CC(C)C)C(=O)N[C@H]1C(=O)N[C@@H](CC(N)=O)C(=O)N[C@H]2C(=O)N[C@H]3C(=O)N[C@H](C(=O)N[C@H](C(=O)O)c4cc(O)cc(O)c4-c4cc3ccc4O)[C@H](O)c3ccc(c(Cl)c3)Oc3cc2cc(c3O[C@@H]2O[C@H](CO)[C@@H](O)[C@H](O)[C@H]2O[C@H]2C[C@](C)(N)[C@H](O)[C@H](C)O2)Oc2ccc(cc2Cl)[C@H]1O [Vancomycin, vancomycin] | – | – | – | – | – | – | – | sensitive | reduction in mortality | 36% | −3.681 μV | 41% | −4.132 μV | 61% | −0.438 μV | sensitive | – | – | – |
| serralysin | – | – | – | – | – | – | – | – | – | – | – | – | – | – | – | – | did not cause a reduction in the colony count | 130% | 1.14 × 10^6 CFU/ml |
